Assay results published in US20230338370A1, “Treatment of Cancer with TOR Kinase Inhibitors” (Signal Pharmaceuticals, LLC, priority 2012, published 2023).

Legend:
Experiment in all cases: Growth inhibition assay for Breast Cancer (BC) Cell lines
Format in all cases: cell-based
CAL-51 = settings: Homo sapiens; CAL-51, TN; 96 hours, Cell Titer-Glo
Protocol: (§1) Growth inhibition assay for Breast Cancer (BC) Cell lines. Compounds 1 (a TOR kinase inhibitor set forth herein having molecular formula C16H16N8O) and 2 (a TOR kinase inhibitor set forth herein having molecular formula C17H18N8O2) were dissolved in dimethyl sulfoxide (DMSO) to prepare a 10 mM stock solution. A serial titration was performed to produce a working concentration range of 1.5 µM to 10 mM. Aliquots to produce final concentrations of 1.5 nM to 10 µM were spotted via an acoustic dispenser (EDC ATS-100) into an empty 384-well plate. Compounds 1 and 2 were spotted in a 10-point serial dilution fashion (3-fold dilution) in duplicate within the plate. The DMSO concentration was kept constant for a final assay concentration of 0.1% DMSO. Plates were replicated for use with different cell lines and testing periods. After compound plate replication, all plates were sealed (Agilent ThermoLoc) and stored at -20° C. for up to 1 month. […] When ready for testing, plates were removed from the freezer, thawed, and unsealed just prior to the addition of the test cells. Prior to testing, cells were grown and expanded in culture flasks to provide sufficient amounts of starting material. Cells were then diluted to the appropriate densities and added directly to the compound-spotted 384-well plates. Cells were allowed to grow for 96 hours at 37° C./5% CO2. At the time when compound was added (t0), initial cell number was assessed via a viability assay (Cell Titer-Glo) by quantifying the level of luminescence generated by ATP present in viable cells. After 96 hours, cell viability of compound-treated cells was assessed via Cell Titer-Glo and luminescence measurement. Cell lines were assayed for growth inhibition by Compounds 1 and 2 in at least 3 independent tests. A control cell line (the lung tumor cell line, A549) was included in each of the assays. The compound response against this control cell line was monitored closely to enable comparison of the data generated through the assay period. All data were normalized and presented as a percentage of the DMSO-treated cells. Results were then expressed as a GI50 value. The GI50 value corrects for the cell count at time zero.

MB157 = settings: MB157, TN; 96 hours, Cell Titer-Glo
Protocol: as §1

HCC1806 = settings: Homo sapiens; HCC1806, TN; 96 hours, Cell Titer-Glo
Protocol: as §1

HCC38 = settings: Homo sapiens; HCC38, TN; 96 hours, Cell Titer-Glo
Protocol: as §1

BT-549 = settings: Homo sapiens; BT-549, TN; 96 hours, Cell Titer-Glo
Protocol: as §1

HCC1187 = settings: Homo sapiens; HCC1187, TN; 96 hours, Cell Titer-Glo
Protocol: as §1

BT-20 = settings: Homo sapiens; BT-20, TN; 96 hours, Cell Titer-Glo
Protocol: as §1

CAL-148 = settings: Homo sapiens; CAL-148, TN; 96 hours, Cell Titer-Glo
Protocol: as §1

HS578T = settings: Homo sapiens, Hs-578T, TN, 96 hours, Cell Titer-Glo
Protocol: as §1

MDA-MB-468 = settings: Homo sapiens; MDA-MB-468, TN; 96 hours, Cell Titer-Glo
Protocol: as §1

HDQ-P1 = settings: Homo sapiens; HDQ-P1, TN; 96 hours, Cell Titer-Glo
Protocol: as §1

DU4475 = settings: Homo sapiens, DU-4475; DU4475, TN; 96 hours, Cell Titer-Glo
Protocol: as §1

MDA-MB-231 = settings: Homo sapiens; MDA-MB-231, TN; 96 hours, Cell Titer-Glo
Protocol: as §1

HCC1937 = settings: Homo sapiens; HCC1937, TN; 96 hours, Cell Titer-Glo
Protocol: as §1

CAL-85-1 = settings: Homo sapiens; CAL-85-1, TN; 96 hours, Cell Titer-Glo
Protocol: as §1

CAL-120 = settings: Homo sapiens; CAL-120, TN; 96 hours, Cell Titer-Glo
Protocol: as §1

HCC1143 = settings: Homo sapiens; HCC1143, TN; 96 hours, Cell Titer-Glo
Protocol: as §1

MDA-MB-436 = settings: Homo sapiens; MDA-MB-436, TN; 96 hours, Cell Titer-Glo
Protocol: as §1

MT-3 = settings: MT-3, TN; 96 hours, Cell Titer-Glo
Protocol: as §1

HCC2157 = settings: Homo sapiens; HCC2157, TN; 96 hours, Cell Titer-Glo
Protocol: as §1

MDA-MB-157 = settings: Homo sapiens; MDA-MB-157, TN; 96 hours, Cell Titer-Glo
Protocol: as §1

HCC70 = settings: Homo sapiens; HCC70, TN; 96 hours, Cell Titer-Glo
Protocol: as §1

- GI50 (CAL-51): 71 nM
- GI50 (MB157): 346 nM
- GI50 (HCC1806): 187 nM
- GI50 (HCC38): 430 nM
- GI50 (BT-549): 146 nM
- GI50 (HCC1187): 195 nM
- GI50 (BT-20): 116 nM
- GI50 (CAL-148): 187 nM
- GI50 (HS578T): 286 nM
- GI50 (MDA-MB-468): 87.2 nM
- GI50 (HDQ-P1): 162 nM
- GI50 (DU4475): 237 nM
- GI50 (MDA-MB-231): 185 nM
- GI50 (HCC1937): 161 nM
- GI50 (CAL-85-1): 88.8 nM
- GI50 (CAL-120): 182 nM
- GI50 (HCC1143): 400 nM
- GI50 (MDA-MB-436): 279 nM
- GI50 (MT-3): 150 nM
- GI50 (HCC2157): 51.5 nM
- GI50 (MDA-MB-157): 472 nM
SMILES: CCN1C(=O)CNc2ncc(-c3ccc(-c4nc[nH]n4)nc3C)nc21 [Compound 1, 1-ethyl-7-(2-methyl-6-(1H-1,2,4-triazol-3-yl)pyridin-3-yl)-3,4-dihydropyrazino[2,3-b]pyrazin-2(1H)-one]
- GI50 (HCC70): 94.2 nM
